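The compound was tested at five concentrations on cells cultured in 96-well plates, with a 48-hour exposure period. GI50 marks 50% less growth.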 The source made the active and inactive calls. No stated cut-off is given here; in the data, active = GI50 up to about 1.1 µM and inactive = higher.
How the values were obtained:
Assay in all cases: NCI-60 cell line screen, 48 h
HT-29 = test system: HT-29
OVCAR-8 = test system: OVCAR-8
SF-539 = test system: SF-539
CCRF-CEM = test system: CCRF-CEM
SK-MEL-28 = test system: SK-MEL-28
UO-31 = test system: UO-31
T47D = test system: T47D
U-251 = test system: U-251
SNB-75 = test system: SNB-75
NCI-H522 = test system: NCI-H522
IGROV-1 = test system: IGROV-1
SK-OV-3 = test system: SK-OV-3
UACC-62 = test system: UACC-62
MDA-N = test system: MDA-N
SR = test system: SR
MDA-MB-231 = test system: MDA-MB-231
SF-268 = test system: SF-268
TK-10 = test system: TK-10
SF-295 = test system: SF-295
M14 = test system: M14

Structure (SMILES)	GI50 (HT-29)	GI50 (OVCAR-8)	GI50 (SF-539)	GI50 (CCRF-CEM)	GI50 (SK-MEL-28)	GI50 (UO-31)	GI50 (T47D)	GI50 (U-251)	GI50 (SNB-75)	GI50 (NCI-H522)	GI50 (IGROV-1)	GI50 (SK-OV-3)	GI50 (UACC-62)	GI50 (MDA-N)	GI50 (SR)	GI50 (MDA-MB-231)	GI50 (SF-268)	GI50 (TK-10)	GI50 (SF-295)	GI50 (M14)
CC1=CC[C@@]2(C)[C@@H]([C@@H]1C)[C@H]1CC[C@@H]3[C@@]4(C)CC[C@H](O)C(C)(C)[C@@H]4CC[C@@]3(C)[C@]1(C)C[C@@H]2O	11.6 µM (inactive)	14.1 µM (inactive)	27 µM (inactive)	5.38 µM (inactive)	6.44 µM (inactive)	> 100 µM (inactive)	23 µM (inactive)	7.94 µM (inactive)	30.3 µM (inactive)	2.52 µM (inactive)	17.1 µM (inactive)	> 44.7 µM (inactive)	> 45.8 µM (inactive)	32.4 µM (inactive)	3.46 µM (inactive)	8.2 µM (inactive)	9.79 µM (inactive)	> 39.5 µM (inactive)	13.2 µM (inactive)	6.52 µM (inactive)
Cc1cc(C)c(S(=O)(=O)N(CCCCCCN)OCCCON(CCCCCCN)S(=O)(=O)c2c(C)cc(C)cc2C)c(C)c1	1.66 µM (inactive)	1.79 µM (inactive)	2.28 µM (inactive)	2.29 µM (inactive)	1.83 µM (inactive)	2.06 µM (inactive)	1.91 µM (inactive)	1.7 µM (inactive)	1.79 µM (inactive)	1.73 µM (inactive)	1.65 µM (inactive)	1.71 µM (inactive)	1.74 µM (inactive)	1.88 µM (inactive)	2.51 µM (inactive)	1.8 µM (inactive)	1.78 µM (inactive)	1.58 µM (inactive)	1.82 µM (inactive)	1.66 µM (inactive)
Cc1cc(=O)oc2cc(OC(=O)Nc3ccc(Cl)c(Cl)c3)ccc12	25.2 µM (inactive)	20.2 µM (inactive)	18.8 µM (inactive)	20.7 µM (inactive)	25.4 µM (inactive)	27.4 µM (inactive)	12 µM (inactive)	20.4 µM (inactive)	25.2 µM (inactive)	17.3 µM (inactive)	20.2 µM (inactive)	36.4 µM (inactive)	16 µM (inactive)	21.3 µM (inactive)	19.7 µM (inactive)	26 µM (inactive)	38 µM (inactive)	34.9 µM (inactive)	20.9 µM (inactive)	22.6 µM (inactive)
Cc1ccc2c(c1)C(C1Cc3cccc(C)c3C1=O)OC2=O (stereo not given)	> 100 µM (inactive)	> 100 µM (inactive)	> 100 µM (inactive)	> 100 µM (inactive)	> 100 µM (inactive)	> 100 µM (inactive)	> 100 µM (inactive)	> 100 µM (inactive)	81.5 µM (inactive)	> 100 µM (inactive)	> 100 µM (inactive)	> 100 µM (inactive)	94.6 µM (inactive)	> 100 µM (inactive)	60.8 µM (inactive)	> 100 µM (inactive)	> 100 µM (inactive)	> 100 µM (inactive)	> 100 µM (inactive)	> 100 µM (inactive)
COC(=O)[C@@H]1COC(C(C)(C)C)N1C(=O)C(c1ccccc1)c1ccccc1 (stereo not given in full)	55.8 µM (inactive)	44.1 µM (inactive)	28.7 µM (inactive)	26.7 µM (inactive)	> 100 µM (inactive)	52.5 µM (inactive)	62.8 µM (inactive)	42 µM (inactive)	32.4 µM (inactive)	59 µM (inactive)	73.1 µM (inactive)	31.4 µM (inactive)	44.1 µM (inactive)	26 µM (inactive)	0.446 µM (active)	45.2 µM (inactive)	> 100 µM (inactive)	50.4 µM (inactive)	60.1 µM (inactive)	52 µM (inactive)
Nc1nc(N)nc(CCCCc2nc(N)nc(N)n2)n1	> 100 µM (inactive)	> 100 µM (inactive)	> 100 µM (inactive)	> 100 µM (inactive)	> 100 µM (inactive)	> 100 µM (inactive)	> 100 µM (inactive)	> 100 µM (inactive)	> 100 µM (inactive)	> 100 µM (inactive)	> 100 µM (inactive)	> 100 µM (inactive)	> 100 µM (inactive)	> 100 µM (inactive)	> 100 µM (inactive)	> 100 µM (inactive)	> 100 µM (inactive)	> 100 µM (inactive)	> 100 µM (inactive)	> 100 µM (inactive)
CCCCC/C(=N\c1[nH]nnc1C(N)=O)OCC	> 100 µM (inactive)	> 100 µM (inactive)	> 100 µM (inactive)	> 100 µM (inactive)	> 100 µM (inactive)	> 100 µM (inactive)	> 100 µM (inactive)	> 100 µM (inactive)	> 100 µM (inactive)	> 100 µM (inactive)	> 100 µM (inactive)	> 100 µM (inactive)	> 100 µM (inactive)	> 100 µM (inactive)	> 100 µM (inactive)	> 100 µM (inactive)	> 100 µM (inactive)	> 100 µM (inactive)	> 100 µM (inactive)	> 100 µM (inactive)
COC(=O)[C@@H]1C[C@@H](O)CN1C(=O)c1ccc([N+](=O)[O-])cc1[N+](=O)[O-]	51.2 µM (inactive)	> 100 µM (inactive)	> 100 µM (inactive)	> 100 µM (inactive)	> 100 µM (inactive)	> 100 µM (inactive)	> 100 µM (inactive)	> 100 µM (inactive)	> 100 µM (inactive)	> 100 µM (inactive)	> 100 µM (inactive)	> 100 µM (inactive)	> 100 µM (inactive)	> 100 µM (inactive)	> 100 µM (inactive)	> 100 µM (inactive)	> 100 µM (inactive)	> 100 µM (inactive)	> 100 µM (inactive)	> 100 µM (inactive)
S=C1Cc2c(-c3ccccc3)cc(-c3ccc(Cl)cc3)nc2-c2ccccc2N1	2.65 µM (inactive)	0.982 µM (active)	3.08 µM (inactive)	3.08 µM (inactive)	3.4 µM (inactive)	1.96 µM (inactive)	4.32 µM (inactive)	0.746 µM (active)	0.951 µM (active)	2.06 µM (inactive)	0.971 µM (active)	2.38 µM (inactive)	2.45 µM (inactive)	4.27 µM (inactive)	> 68.7 µM (inactive)	1.53 µM (inactive)	1.89 µM (inactive)	2.12 µM (inactive)	3.39 µM (inactive)	3.97 µM (inactive)
CN(C)c1ccc(/N=N\c2cccc3ncccc23)cc1	39 µM (inactive)	> 100 µM (inactive)	> 100 µM (inactive)	51.3 µM (inactive)	> 100 µM (inactive)	8.53 µM (inactive)	1.89 µM (inactive)	> 74.1 µM (inactive)	36.6 µM (inactive)	20.8 µM (inactive)	< 0.0159 µM (active)	> 100 µM (inactive)	97.5 µM (inactive)	42 µM (inactive)	55 µM (inactive)	41.1 µM (inactive)	> 94 µM (inactive)	0.0425 µM (active)	> 78 µM (inactive)	61.7 µM (inactive)
